Test results from ChEMBL document CHEMBL1201862, “PubChem BioAssay data set” (2004).
One block for each molecule: values may come before it. The source made the active and inactive calls.

Experiments:
Coagulation factor XII = molecular target: T1, Coagulation factor XII (Homo sapiens, UniProt P00748); type: functional;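 note: activated factor XIIa alpha cleaving a fluorogenic AMC peptide substrate; inhibitor potency from loss of enzyme activity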
T1 sequence (P00748 whole entry): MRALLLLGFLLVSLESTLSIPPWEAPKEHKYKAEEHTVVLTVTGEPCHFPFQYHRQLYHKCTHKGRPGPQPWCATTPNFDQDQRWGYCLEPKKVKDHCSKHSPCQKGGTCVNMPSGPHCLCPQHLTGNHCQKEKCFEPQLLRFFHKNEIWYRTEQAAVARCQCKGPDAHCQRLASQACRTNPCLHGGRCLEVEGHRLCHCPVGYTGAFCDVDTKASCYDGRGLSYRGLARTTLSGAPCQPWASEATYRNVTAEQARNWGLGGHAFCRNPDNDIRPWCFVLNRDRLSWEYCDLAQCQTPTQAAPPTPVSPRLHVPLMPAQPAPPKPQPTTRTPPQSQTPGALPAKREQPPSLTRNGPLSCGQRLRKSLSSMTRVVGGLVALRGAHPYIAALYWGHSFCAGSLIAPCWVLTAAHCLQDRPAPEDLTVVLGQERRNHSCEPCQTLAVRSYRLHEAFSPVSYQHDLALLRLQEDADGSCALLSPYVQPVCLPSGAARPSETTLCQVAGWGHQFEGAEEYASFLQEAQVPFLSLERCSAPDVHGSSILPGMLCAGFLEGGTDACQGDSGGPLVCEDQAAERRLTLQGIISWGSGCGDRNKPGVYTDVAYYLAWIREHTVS

Cytochrome P450 2D6 = Cytochrome P450 2D6 (Homo sapiens, UniProt P10635);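 note: CYP2D6 member of a cytochrome P450 panel assay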
Cytochrome P450 2D6, sequence (P10635 whole entry): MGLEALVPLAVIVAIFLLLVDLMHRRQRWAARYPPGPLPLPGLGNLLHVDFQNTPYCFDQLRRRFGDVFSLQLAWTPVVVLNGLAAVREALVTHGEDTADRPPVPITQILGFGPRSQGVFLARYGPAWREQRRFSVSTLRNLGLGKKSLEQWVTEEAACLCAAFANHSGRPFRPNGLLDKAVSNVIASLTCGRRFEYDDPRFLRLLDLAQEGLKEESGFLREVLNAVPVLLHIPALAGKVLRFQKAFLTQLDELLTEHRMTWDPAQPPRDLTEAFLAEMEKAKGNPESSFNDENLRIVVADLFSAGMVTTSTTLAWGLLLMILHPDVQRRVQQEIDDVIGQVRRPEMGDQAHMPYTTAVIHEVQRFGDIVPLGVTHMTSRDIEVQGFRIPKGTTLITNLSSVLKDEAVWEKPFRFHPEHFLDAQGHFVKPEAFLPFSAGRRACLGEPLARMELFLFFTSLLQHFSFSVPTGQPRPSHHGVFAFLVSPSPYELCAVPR

[1] = molecular target: T2, Orexin/Hypocretin receptor type 1 (Homo sapiens, UniProt O43613); experiment: (§1) Fluorescence-based cell-based high throughput dose response assay for antagonists of the orexin 1 receptor (OX1R; HCRTR1). [Related pubchem assays (depositor defined):AID434989, AID435008, AID463079, AID485270, AID492963, AID492964, AID492965, AID493232, AID504717, AID504718]; type: functional
T2 sequence (O43613 whole entry): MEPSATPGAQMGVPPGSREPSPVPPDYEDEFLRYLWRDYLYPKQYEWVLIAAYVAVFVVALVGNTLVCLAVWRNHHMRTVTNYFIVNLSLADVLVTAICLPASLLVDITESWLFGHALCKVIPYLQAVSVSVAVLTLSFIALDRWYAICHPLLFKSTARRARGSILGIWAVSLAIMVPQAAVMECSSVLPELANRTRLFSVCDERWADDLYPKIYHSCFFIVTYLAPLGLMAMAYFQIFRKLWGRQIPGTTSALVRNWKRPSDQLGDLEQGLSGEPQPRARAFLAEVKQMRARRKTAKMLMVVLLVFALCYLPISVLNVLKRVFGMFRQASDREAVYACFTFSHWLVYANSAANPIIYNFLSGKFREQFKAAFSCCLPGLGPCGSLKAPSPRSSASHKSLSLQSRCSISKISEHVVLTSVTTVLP

[2] = molecular target: T2, Orexin/Hypocretin receptor type 1; experiment: as §1, with “Homogeneous Time Resolved Fluorescence (HTRF)-based” for “Fluorescence-based”; type: functional
CHO-K1 = experiment: (§2) Counterscreen for antagonists of the orexin 1 receptor (OX1R; HCRTR1): Homogeneous time resolved fluorescence (HTRF)-based cell-based dose response assay to identify antagonists of the parental CHO-K1 cell line. [Related pubchem assays (depositor defined):AID434989, AID435008, AID463079, AID485270, AID492963, AID492964, AID492965, AID493232, AID504699, AID504701]; type: functional; details: Cricetulus griseus
[3] = as §2, with “Fluorescence-based” for “Homogeneous time resolved fluorescence (HTRF)-based”, “cell-based high throughput” for “cell-based”, “CHO” for “CHO-K1”; type: functional
[4] = molecular target: T3, Calpain-2 catalytic subunit (Sus scrofa, UniProt P43367); experiment: pig calpain II inhibitor potency, dose response, biochemical, fluorogenic peptide substrate (AID 1420); type: functional
T3 sequence (P43367 whole entry): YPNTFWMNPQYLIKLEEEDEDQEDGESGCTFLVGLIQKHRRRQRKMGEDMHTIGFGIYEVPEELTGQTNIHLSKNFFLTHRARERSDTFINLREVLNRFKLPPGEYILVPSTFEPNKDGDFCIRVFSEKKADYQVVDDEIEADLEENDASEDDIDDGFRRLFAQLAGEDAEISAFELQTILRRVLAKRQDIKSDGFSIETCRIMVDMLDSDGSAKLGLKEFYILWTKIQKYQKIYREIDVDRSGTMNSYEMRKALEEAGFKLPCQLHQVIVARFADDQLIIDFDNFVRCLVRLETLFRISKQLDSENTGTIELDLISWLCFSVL

SUMO-activating enzyme = SUMO-activating enzyme (Homo sapiens, UniProt Q9UBT2); experiment: SUMOylation inhibitor hit validation, confirmation, SUMOylation inhibitor project, biochemical, AlphaScreen (AID 2018); type: functional
SUMO-activating enzyme, sequence (Q9UBE0 whole entry): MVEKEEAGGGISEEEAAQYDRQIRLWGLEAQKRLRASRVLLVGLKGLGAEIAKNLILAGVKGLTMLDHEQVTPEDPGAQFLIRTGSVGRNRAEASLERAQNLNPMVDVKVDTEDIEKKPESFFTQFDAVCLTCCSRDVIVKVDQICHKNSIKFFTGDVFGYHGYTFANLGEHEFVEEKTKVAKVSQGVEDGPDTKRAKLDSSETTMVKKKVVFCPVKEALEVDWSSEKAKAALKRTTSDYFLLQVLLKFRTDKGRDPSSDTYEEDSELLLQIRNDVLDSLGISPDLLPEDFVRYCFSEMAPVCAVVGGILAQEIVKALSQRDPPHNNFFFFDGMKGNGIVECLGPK
SUMO-activating enzyme, sequence (Q9UBT2 whole entry): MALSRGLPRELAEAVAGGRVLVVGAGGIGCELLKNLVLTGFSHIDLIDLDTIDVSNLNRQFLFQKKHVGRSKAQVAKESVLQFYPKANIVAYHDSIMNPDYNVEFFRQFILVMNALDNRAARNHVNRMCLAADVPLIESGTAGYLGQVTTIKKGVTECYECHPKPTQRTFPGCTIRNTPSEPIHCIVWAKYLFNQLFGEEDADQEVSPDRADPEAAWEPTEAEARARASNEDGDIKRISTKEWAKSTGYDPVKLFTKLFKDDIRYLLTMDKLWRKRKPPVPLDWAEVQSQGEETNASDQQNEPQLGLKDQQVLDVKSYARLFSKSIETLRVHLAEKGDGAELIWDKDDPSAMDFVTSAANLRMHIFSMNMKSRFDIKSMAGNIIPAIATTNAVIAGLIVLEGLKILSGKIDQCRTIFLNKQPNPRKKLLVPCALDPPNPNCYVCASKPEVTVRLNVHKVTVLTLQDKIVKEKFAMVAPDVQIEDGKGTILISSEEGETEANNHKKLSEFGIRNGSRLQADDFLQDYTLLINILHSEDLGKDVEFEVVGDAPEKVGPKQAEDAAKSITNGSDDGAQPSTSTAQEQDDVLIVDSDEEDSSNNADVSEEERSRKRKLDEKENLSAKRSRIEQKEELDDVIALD

Beta-galactosidase [5] = molecular target: T4, Beta-galactosidase (Escherichia coli, UniProt Q8VNN2); type: functional
T4 sequence (Q8VNN2 whole entry): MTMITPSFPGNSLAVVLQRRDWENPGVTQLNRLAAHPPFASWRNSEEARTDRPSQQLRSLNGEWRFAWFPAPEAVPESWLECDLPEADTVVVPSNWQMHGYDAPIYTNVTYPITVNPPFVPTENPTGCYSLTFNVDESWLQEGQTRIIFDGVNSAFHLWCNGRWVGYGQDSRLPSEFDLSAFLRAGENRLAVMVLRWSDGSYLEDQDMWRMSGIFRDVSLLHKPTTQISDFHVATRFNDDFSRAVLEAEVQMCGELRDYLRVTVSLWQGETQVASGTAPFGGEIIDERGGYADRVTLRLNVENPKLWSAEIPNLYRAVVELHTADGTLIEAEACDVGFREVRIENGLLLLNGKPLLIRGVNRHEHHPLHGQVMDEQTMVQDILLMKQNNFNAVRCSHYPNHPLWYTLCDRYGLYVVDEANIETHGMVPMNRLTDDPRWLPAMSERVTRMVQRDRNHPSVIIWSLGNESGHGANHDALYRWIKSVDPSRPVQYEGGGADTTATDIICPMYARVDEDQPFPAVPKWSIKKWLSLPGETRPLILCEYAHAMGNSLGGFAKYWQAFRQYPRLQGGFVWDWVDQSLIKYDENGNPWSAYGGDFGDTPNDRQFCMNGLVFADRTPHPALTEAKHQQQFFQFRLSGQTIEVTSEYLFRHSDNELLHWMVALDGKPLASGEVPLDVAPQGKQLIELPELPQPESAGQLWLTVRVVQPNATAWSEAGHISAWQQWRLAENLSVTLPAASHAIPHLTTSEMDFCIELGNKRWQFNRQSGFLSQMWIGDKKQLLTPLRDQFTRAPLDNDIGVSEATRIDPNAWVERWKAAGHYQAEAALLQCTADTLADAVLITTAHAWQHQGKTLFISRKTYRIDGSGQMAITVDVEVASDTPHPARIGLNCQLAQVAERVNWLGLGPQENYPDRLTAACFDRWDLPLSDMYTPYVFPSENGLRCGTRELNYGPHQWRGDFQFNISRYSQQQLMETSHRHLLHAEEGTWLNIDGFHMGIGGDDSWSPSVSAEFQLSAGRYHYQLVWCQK

Streptococcus = experiment: Group A Streptococcus viability loss, dose response, counter-screen for streptokinase expression inhibitor project, luminescence, BacTiterGlo (AID 1915); type: functional, organism-based;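 note: potency for reduction of bacterial viability or growth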
[6] = molecular target: T5, Kappa-type opioid receptor (Homo sapiens, UniProt P41145); type: functional
T5 sequence (P41145 whole entry): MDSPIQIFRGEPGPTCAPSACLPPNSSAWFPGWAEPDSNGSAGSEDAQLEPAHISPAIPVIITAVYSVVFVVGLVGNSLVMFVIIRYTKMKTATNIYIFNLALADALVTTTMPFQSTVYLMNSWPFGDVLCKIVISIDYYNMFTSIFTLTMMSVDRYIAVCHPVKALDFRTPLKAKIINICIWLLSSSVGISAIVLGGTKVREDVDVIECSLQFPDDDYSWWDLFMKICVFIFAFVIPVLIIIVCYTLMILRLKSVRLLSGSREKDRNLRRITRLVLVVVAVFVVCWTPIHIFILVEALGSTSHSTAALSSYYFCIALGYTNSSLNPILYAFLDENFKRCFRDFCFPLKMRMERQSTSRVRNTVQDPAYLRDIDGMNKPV

[7] = molecular target: T5, Kappa-type opioid receptor; type: functional; remark: listed apart in the source
Beta-galactosidase [8] = molecular target: T4, Beta-galactosidase; experiment: beta-galactosidase enzyme inhibitors and activators, dose response, artefact control for CCR6 antagonist project, biochemical, E. coli enzyme, set 3 (AID 504712); type: functional
[9] = tested on: Streptococcus sp. 'group A'; experiment: growth inhibition of control SK(-) GAS strain, dose response, counter-screen for streptokinase expression inhibitor project, luminescence, kanamycin, BacTiterGlo, confirmation (AID 1900); type: functional, organism-based
[10] = Counterscreen for AddAB inhibitors: absorbance-based bacterial cell-based high throughput dose response assay for inhibitors of bacterial viability. [Related pubchem assays (depositor defined):AID435030, AID449728, AID449731, AID488942, AID488955, AID488956]; type: functional
HEK293 = experiment: inhibitors of LMP1-driven NF-kB reporter, dose response, cell-based, HEK293, luciferase, cherry-pick (AID 588343); type: functional; details: Homo sapiens
Exodeoxyribonuclease V = molecular target: T6, Exodeoxyribonuclease V (Escherichia coli (strain K12), UniProt P04993+P07648+P08394); experiment: E. coli RecBCD inhibitors, dose response, counter-screen for AddAB inhibitor project, absorbance, V66 E. coli, mutant T4 phage (AID 492957); type: functional, cell-based, Escherichia coli str. K-12 substr. MG1655
T6 sequence (P04993 whole entry): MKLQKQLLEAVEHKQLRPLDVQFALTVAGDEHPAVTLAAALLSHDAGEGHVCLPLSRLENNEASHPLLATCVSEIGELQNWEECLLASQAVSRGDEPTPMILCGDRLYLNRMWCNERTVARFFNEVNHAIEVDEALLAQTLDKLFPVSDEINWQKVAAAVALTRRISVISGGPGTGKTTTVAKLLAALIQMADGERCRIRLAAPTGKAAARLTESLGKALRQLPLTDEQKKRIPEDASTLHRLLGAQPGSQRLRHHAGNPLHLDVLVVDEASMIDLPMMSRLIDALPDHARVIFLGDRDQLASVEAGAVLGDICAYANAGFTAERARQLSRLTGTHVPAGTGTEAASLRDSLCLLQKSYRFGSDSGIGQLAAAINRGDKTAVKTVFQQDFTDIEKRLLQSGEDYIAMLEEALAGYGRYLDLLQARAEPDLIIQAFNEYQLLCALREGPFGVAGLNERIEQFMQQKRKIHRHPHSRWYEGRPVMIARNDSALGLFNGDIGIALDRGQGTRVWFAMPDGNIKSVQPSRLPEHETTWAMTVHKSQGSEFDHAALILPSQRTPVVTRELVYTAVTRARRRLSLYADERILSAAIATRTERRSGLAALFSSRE
T6 sequence (P07648 whole entry): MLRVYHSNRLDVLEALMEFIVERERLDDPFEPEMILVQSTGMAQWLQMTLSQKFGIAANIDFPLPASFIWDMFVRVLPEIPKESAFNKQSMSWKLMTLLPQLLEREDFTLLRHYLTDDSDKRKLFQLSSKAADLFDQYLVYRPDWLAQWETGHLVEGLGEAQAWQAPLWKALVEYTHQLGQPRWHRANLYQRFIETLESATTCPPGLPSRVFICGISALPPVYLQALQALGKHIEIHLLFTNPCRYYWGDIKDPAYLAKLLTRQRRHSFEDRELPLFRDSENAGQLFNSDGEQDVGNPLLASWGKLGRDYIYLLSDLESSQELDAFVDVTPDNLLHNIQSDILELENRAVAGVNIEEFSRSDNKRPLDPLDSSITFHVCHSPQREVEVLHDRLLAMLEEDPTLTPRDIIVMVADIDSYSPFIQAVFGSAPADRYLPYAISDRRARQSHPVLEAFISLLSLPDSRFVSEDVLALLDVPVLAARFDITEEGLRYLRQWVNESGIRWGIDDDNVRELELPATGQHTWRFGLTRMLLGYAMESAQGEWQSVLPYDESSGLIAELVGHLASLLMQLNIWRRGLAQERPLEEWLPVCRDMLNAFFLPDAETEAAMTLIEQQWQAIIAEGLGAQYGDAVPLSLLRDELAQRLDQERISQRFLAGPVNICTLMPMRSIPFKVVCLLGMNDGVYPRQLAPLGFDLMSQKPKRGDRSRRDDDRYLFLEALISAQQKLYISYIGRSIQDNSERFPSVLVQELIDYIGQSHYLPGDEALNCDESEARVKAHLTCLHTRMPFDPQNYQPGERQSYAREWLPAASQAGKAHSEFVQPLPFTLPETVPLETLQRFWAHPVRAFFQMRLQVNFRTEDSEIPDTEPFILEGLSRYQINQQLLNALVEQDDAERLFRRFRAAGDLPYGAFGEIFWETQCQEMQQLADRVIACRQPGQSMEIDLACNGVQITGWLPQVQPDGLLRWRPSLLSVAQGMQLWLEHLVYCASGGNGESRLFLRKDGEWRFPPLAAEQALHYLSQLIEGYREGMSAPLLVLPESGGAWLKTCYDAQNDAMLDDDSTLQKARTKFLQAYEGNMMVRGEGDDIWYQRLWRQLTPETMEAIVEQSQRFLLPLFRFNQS
T6 sequence (P08394 whole entry): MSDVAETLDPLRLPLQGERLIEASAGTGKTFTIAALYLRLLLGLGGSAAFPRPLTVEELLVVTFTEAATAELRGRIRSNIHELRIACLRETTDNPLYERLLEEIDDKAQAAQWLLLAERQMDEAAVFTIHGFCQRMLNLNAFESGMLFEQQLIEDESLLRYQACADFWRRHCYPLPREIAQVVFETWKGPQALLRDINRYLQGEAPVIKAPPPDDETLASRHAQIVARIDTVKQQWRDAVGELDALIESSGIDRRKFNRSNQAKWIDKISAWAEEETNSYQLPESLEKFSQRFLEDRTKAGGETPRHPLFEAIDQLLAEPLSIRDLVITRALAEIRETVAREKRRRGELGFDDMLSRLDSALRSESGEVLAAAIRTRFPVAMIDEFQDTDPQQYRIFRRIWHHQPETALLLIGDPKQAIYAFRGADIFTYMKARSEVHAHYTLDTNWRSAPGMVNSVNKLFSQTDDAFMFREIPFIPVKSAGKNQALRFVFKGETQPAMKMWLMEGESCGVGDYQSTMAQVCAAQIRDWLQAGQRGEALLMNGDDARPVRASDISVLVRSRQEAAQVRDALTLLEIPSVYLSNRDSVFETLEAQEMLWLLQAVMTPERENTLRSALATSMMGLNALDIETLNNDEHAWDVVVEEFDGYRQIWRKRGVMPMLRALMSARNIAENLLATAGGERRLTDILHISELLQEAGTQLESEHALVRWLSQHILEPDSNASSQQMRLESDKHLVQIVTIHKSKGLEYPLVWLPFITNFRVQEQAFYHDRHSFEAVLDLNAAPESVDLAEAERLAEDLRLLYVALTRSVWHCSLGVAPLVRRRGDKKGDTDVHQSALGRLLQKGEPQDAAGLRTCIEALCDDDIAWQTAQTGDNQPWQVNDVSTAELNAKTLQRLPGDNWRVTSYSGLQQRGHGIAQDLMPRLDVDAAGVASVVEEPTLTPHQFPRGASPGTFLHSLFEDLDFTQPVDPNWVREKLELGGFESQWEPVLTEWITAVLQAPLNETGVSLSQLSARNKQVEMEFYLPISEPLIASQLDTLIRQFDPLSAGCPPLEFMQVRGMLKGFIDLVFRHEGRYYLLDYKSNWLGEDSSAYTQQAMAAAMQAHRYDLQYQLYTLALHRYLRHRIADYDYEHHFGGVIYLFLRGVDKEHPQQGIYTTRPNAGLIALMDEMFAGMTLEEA

SMILES: CC(C)n1c(=O)[nH][nH]c1=S
IC50 [1]: 34.4 µM (inactive)
IC50 [2]: 7.04 µM (active)
IC50 (CHO-K1): > 66.2 µM (inactive)
IC50 [3]: > 49.8 µM (inactive)

SMILES: N=C1SCC(=O)N1c1ncc(Cc2ccc(F)cc2)s1
EC50 (Beta-galactosidase [5]): > 31.5 µM (inactive)
EC50 (Streptococcus): 2.21 µM (active)
IC50 [6]: > 32 µM
IC50 [7]: 7.35 µM (active)
IC50 (Beta-galactosidase [8]): > 66.6 µM (inactive)
EC50 [9]: 0.949 µM (active)

SMILES: COc1ccc(CNC(=O)COC(=O)[C@H](Cc2c[nH]c3ccccc23)NC(=O)c2cccs2)cc1
IC50 [1]: 13.1 µM (inactive)
IC50 [2]: 26.9 µM (inactive)
IC50 (CHO-K1): > 66.2 µM (inactive)
IC50 [3]: 12.8 µM (inactive)

SMILES: NC(=S)N/N=C/c1ncc(C(F)(F)F)cc1Cl
EC50 (Beta-galactosidase [5]): > 31.5 µM (inactive)
IC50 [10]: > 119 µM (inactive)
AC50 (HEK293): 10.2 µM (active)
IC50 [6]: > 32 µM
IC50 [7]: 22.2 µM (inactive)
IC50 (Exodeoxyribonuclease V): > 119 µM (inactive)

The remaining lines, values ahead:

IC50 (Coagulation factor XII): > 50 µM (inactive)
AC50 (Cytochrome P450 2D6): 25.1 µM (inconclusive)
SMILES: CN(C)S(=O)(=O)Oc1ccsc1C(=O)Nc1cccc(Cl)c1

IC50 (Coagulation factor XII): > 50 µM (inactive)
IC50 [4]: 0.719 µM (not active)
SMILES: Cc1ccsc1C(=O)NCCC(c1ccccc1)c1ccccc1

IC50 (SUMO-activating enzyme): 35 µM (active)
SMILES: COc1ccc(-c2nc3cc([N+](=O)[O-])ccc3[nH]2)cc1

IC50 (Coagulation factor XII): > 50 µM (inactive)
SMILES: COc1ccc(C2C(C(=O)Nc3ccccc3OC)=C(C)Nc3ncnn32)cc1 (configuration not stated)

IC50 (Coagulation factor XII): > 50 µM (inactive)
SMILES: Cc1cc(C)c(C#N)c(SCc2ccc([N+](=O)[O-])cc2)n1
